According to US20090325202A1, “Methods for Developing and Assessing Therapeutic Agents” (priority 2006, published 2009):

Assays:
AKT = test: Ex vivo treatment of human breast cancer cells obtained by FNAB, AKT phosphorylation; format: cell-based; settings: 3 hours, AG1478 0.5 uM, LY294002 10 uM
Description: (§1) To obtain cancer cells cancer tumor tissue was sampled four times with a sterile 25G short needle and tumor samples were immediately transferred into 10 ml sterile prewarmed complete RPMI-1640 culture medium containing 10% fetal calf serum, penicillin (200 ug/ml) and streptomycin (200 ug/nil). After centrifugation and cells were resuspended and distributed in 6-well microculture plates and treated in duplicates with vehicle alone (DMSO control), an EGFR inhibitor AG1478 (0.5 uM) (Calbiochem, 658548), a MEK/ERK inhibitor PD98059 (20 uM) (Biosource International, PHZ 1164) or with a PI3K/AKT inhibitor LY294002 (10 uM) (Biosource International, PHZI 144) in a humidified 5% CO2 incubator at 37° C. for 3 hours.
(§2) Following treatment nonadherent and adherent cells (collected by scraping) were pooled together in a 1.5 ml microcentrifuge tube and centrifuged at 500×g for 5 min at 4° C. After washing with PBS, cells were lysed in 100 μl of ice-cold lysis buffer and therapy-induced changes n the expression and phosphorylation levels of AKT and ERK1/2 were detected by Western blot.

ERK1/2 [1] = test: Ex vivo treatment of human breast cancer cells obtained by FNAB, ERK1/2 phosphorylation; format: cell-based; settings: 3 hours, AG1478 0.5 uM, PD98059 20 uM
Description: as §1, §2

ERK1/2 [2] = test: Phospho-/total ERK1/2 ELISA in EGF-stimulated T-47D cell smears; format: cell-based, human; settings: T-47D cells, AG1478 0.5 uM, PD98059 20 uM
Description: T47D cells were maintained in Dulbecco's modified Eagle's medium (Life Technologies, Inc.) supplemented with 10% fetal calf serum and antibiotics (Life Technologies, Inc.). Prior to EGF (Sigma) stimulation, cells were starved for 24 h in serum-free medium.
(§3) Total cell lysates were obtained from either cells cultured in vitro or from tumor FNAB samples. Protein extracts were resolved by 4-15% SDS-PAGE and probed with Rabbit anti-EGFR, anti-phospbo-EGFR, anti-ERK1 and anti-phospho-ERK antibodies obtained from New England Biolabs (Beverly, Mass.). Immunoreactive proteins were visualized by enhanced chemiluminescence (Amersham International, United Kingdom). Total and phospho-ERK1/2 proteins were quantified by sandwich [LISA kits (BioSource International, Camarillo, Calif., USA) as described in the manufacturer's protocols. The reaction was read at 450 nm in an ELISA plate reader.
Western blot analysis of protein samples is a conventional method for phosphoprotein analysis. However, Western blot analysis is limited in throughput and quantitative precision, and also requires large sample amounts. […] Therefore, it was tested if quantitative ELISA assays can be applied to cytologic samples to increase the assay sensitivity to measure the expression levels and activation status of specific signaling pathways. […]

HuCCT-1 tumors = test: HuCCT-1 xenograft tumor growth; format: in vivo, athymic (nu+/nu+) mice; settings: single agents: gefitinib 150 mg/Kg i.p. days 1-5 and 8-12, CI-1040 150 mg/Kg twice a day oral days 1-14
Description: (§4) Four to 6-week-old female athymic (nu+/nu+) mice were purchased from Harlan (Harlan Laboratories, Washington, D.C.). The research protocol was approved by the Johns Hopkins University Animal Care Committee and animals were maintained in accordance with the guidelines of the American Association of Laboratory Animal Care. […] Mice were monitored daily for signs of toxicity and were weighed three times per week. Tumor size was evaluated three times per week by caliper measurements using the following formula: tumor volume=[length×width^2]/2. Tumor growth inhibition was calculated by tumor volume of treated mice divided by tumor volume of control mice. Experiments were terminated on day 14.
To explore the feasibility of implementing this method in in vivo studies, mouse xenografts were next employed to test whether FNAB material obtained from tumor tissue can be utilized to monitor and predict therapy response in vivo. For this purpose HuCCT-1 cholangiocarcinoma cells were used to create a xenograft mouse model of human cholangiocarcinoma. […] Tumor volumes were measured and compared with tumors from animals that received drug vehicle alone.

ERK1/2 [3] = test: Panc 265 xenograft FNAB cells treated ex vivo, ERK1/2 phosphorylation; format: cell-based, human; settings: Panc 265 FNAB cells; ZD1839 5 uM; 6 hours
Description: (§5) To obtain cancer cells, each animal tumor was sampled as described above. After collection of tumor FNAB samples, xenograft animals were subsequently treated with ZD1839 or CCI-779 for 28 days and tumor volumes were determined as described above. At day 7 of therapy, AD/DQ slides were prepared from tumor FNAB samples to retrospectively correlate the results of in vivo and ex vivo chemosentitivty tests from the same xenograft animal.
To determine viability of tumor cells obtained by FNAB, trypan blue dye exclusion assay was performed. The viability of tumor cells obtained by tumor FNAB from control animals was over 95%. Approximately 75,000 tumor cells were seeded into each well of a 6-well polypropylene microplate. Cells were treated in duplicates with vehicle (control) or with ZD1839 (5 uM) or CCI-779 (1 uM) in a humidified 5% CO2 incubator at 37° C. for different periods to determine the optimal treatment time to analyze drug effects.
(§6) After the treatment cells were collected, protein extracts were prepared and Western blot analysis was performed as described above. The ex vivo effect of ZD 1839 and CCI-779 on phosphorylation of ERK1/2 or S6 ribosomal proteins, respectively, was correlated with the in vivo data gathered from the FNAB smears prepared at day 7 of treatment.

ERK1/2 [4] = test: HuCCT-1 xenograft tumor FNAB Western blot, ERK1/2 activity; format: in vivo, human; settings: in vivo
Description: as §4
Fine needle aspirates were obtained with a 25G needle and 10 ml syringe, passing the needle through the tumor 10 times with application of 1-2 ml suction The aspirated material was expressed onto clear glass slides and smeared. All smears were allowed to air dry and then stained with Diff-Quik stain (Baxter Healthcare, Miami, Fla.). Five to ten AD/DQ-stained cytological smears were prepared from each tumor sample. The cellular composition of each aspirate was assessed by cytopathologists.
as §3, with “Protein extracts were resolved by 4-15% SDS-PAGE and probed with Rabbit anti-EGFR, anti-phospbo-EGFR, anti-ERK1 and anti-phospho-ERK antibodies obtained from New England Biolabs (Beverly, Mass.).” left out
Next, whether FNAB samples obtained from tumor tissue at the early stage of therapy can be used to predict tumor response was examined. […] Expression and phosphorylation levels of ERK 1/2 were analyzed on Western blot by using extracts prepared from AD/DQ-stained FNAB samples.

ERK1/2 [5] = test: HuCCT-1 xenograft tumor FNAB phospho-/total ERK1/2 ELISA; format: in vivo, human
Description: as §4
as §3, with “Protein extracts were resolved by 4-15% SDS-PAGE and probed with Rabbit anti-EGFR, anti-phospbo-EGFR, anti-ERK1 and anti-phospho-ERK antibodies obtained from New England Biolabs (Beverly, Mass.).” left out
Western blot analysis of protein samples is a conventional method for phosphoprotein analysis, but is limited in throughput, quantitative precision and requires large sample amounts. ELISA assays offer alternatives to Western blot with higher throughput and increased sensitivity. […] For this purpose the tumor FNAB samples, which have been analyzed on Western blot above (FIG. 16A), were used to assess the expression and phosphorylation of ERK1/2 proteins by the total and phospho-specific ERK1/2 ELISA assays, respectively.
The amounts of phosphorylated ERK1/2 were normalized for the total contents of these proteins in each sample group and therapy-mediated changes in their phosphorylation status were quantified.

ERK1/2 [6] = test: Panc 265 xenograft in vivo FNAB smears, ERK1/2 activity; parameters: species or system human; settings: ZD1839 150 mg/Kg daily i.p., FNAB day 7
Description: Animals were either untreated or treated with ZD1839: 150 mg/Kg daily or CCI-779: 20 mg/kg days 1-5 by intraperitoneal injection
as §5, §6

| SMILES | phosphorylation of AKT (AKT) | phosphorylation of ERK1/2 (ERK1/2 [1]) | inhibition of EGF-induced ERK1/2 phosphorylation (phospho-ELISA normalized for total ERK1/2) (ERK1/2 [2]) | decrease in tumor volume (HuCCT-1 tumors) | ERK1/2 phosphorylation ex vivo (ERK1/2 [3]) | ERK1/2 activity, serial FNAB sampling (ERK1/2 [4]) | phosphorylation levels of ERK1/2 by phospho-ERK1/2 ELISA (raw data) (ERK1/2 [5]; HuCCT-1 tumor FNAB samples of treated animals) | increase of ERK1/2 phosphorylation (normalized for total ERK1/2) (ERK1/2 [5]; HuCCT-1 tumor FNAB, gefitinib alone) | ERK1/2 activity in vivo (ERK1/2 [6]) |
| --- | --- | --- | --- | --- | --- | --- | --- | --- | --- |
| COc1cc2ncnc(Nc3cccc(Cl)c3)c2cc1OC [AG1478] | reduced the phosphorylation of both ERK1/2 and AKT proteins | reduced the phosphorylation of both ERK1/2 and AKT proteins | 80% | – | – | – | – | – | – |
| COc1cc2ncnc(Nc3ccc(F)c(Cl)c3)c2cc1OCCCN1CCOCC1 [gefitinib, Gefitinib] | – | – | – | 4% | failed to block ERK1/2 phosphorylation | neither of these agents alone caused inhibition | neither gefitinib nor CI-1040 treatment alone caused any significant change | 17% | failed to block ERK1/2 activity |
